Results on three compounds are retold here after patent US20250082656A1, “DOSAGE REGIMENS FOR TREATMENT OF DENGUE INFECTION” (Atea Pharmaceuticals, Inc., priority 2022, published 2025).

Where two headings read alike, the source gives them in different places.

Data set [1] in a line: Plasma PK after single oral dose of AT-752, rats. It counts as in vivo, SD rats. The note with it: Rat, single oral AT-752 300 mg/kg. As for the experimental part:
Male SD rats were administered 300 mg/kg Compound 2 (AT-752). Blood samples were collected up to 24 hrs. post dose, plasma separated and analyzed for Compound 1 (AT-281), Compound 3 (AT-551), and Compound 6 (AT-273) by LC-MS/MS. Data are express as mean+/−SD (n=3-5/time point). The x-axis is time post the dose measured in hours and the y-axis is the plasma concentration of the metabolites measured in nanomoles/mL). The experimental procedure is provided in Example 14.
Male naïve SD rats (Beijing Vital River Laboratory Animals Co. Ltd., China) were administered a dose of AT-752 at 300 mg/kg in 40% PEG400, 10% solutol HS15, 50% 100 mM citrate buffer, pH 4.5 (v/v) by oral gavage. Blood samples (n=4) were collected at 1, 2, 4, 8, 12 and 24 h post-dose, plasma separated and stored at −70° C. […] For PBMCs, nine male naïve SD rats were administered a dose of Compound 2 (AT-752) (at a Compound 1 (AT-281) equivalent dose of 300 mg/kg) by oral gavage.
(§1) Pharmacokinetic measurements for FIGS. 11, 12, 13, 14, and 15 were analyzed using LC-MS/MS according to the protocol described herein. Plasma samples were prepared for MS analysis by adding internal standards and extracting with 20 volumes chilled ACN. After vortex (800 rpm for 10 min) and centrifugation (4,000 rpm, 15 min, 4° C.), the supernatants (25 μL) were diluted with an equal volume of H2O, mixed and spun again. After adding internal standards, the PBMC samples (10^6 cells) were lyzed with 300 μL MeOH/H2O (70:30, v/v) and 40 mM dibutylammonium acetate (DBAA), mixed by vortex and centrifuged (12,000 rpm, 15 min, 4° C.). Aliquots of the supernatants (35 μL) were dried under nitrogen and reconstituted in H2O, then mixed and spun again. […] A binary nonlinear gradient with mobile phases A (0.1% formic acid in water) and B (0.1% formic acid in ACN) were used to elute samples at 0.8 mL/min, with a run time of 5 min. […] A binary nonlinear gradient with mobile phases A (0.001% NHr H2O, 0.18 mM DBAA in H2O) and B (10 mM N,N-dimethyl-hexylamine, 3 mM NH4OAc in ACN/H2O (50.50, v/v)) were used to elute samples at 0.5 mL/min, with a run time of 3 min. Standards in 50% MeOH were used for calibration. […] Internal standards (ISS) as described previously (Good et al., Preclinical evaluation of AT-527, a novel guanosine nucleotide prodrug with potent, pan-genotypic activity against hepatitis C virus. PLos One 15:e02271045) were used to correct for variations in recovery.
(§2) Data analysis of the pharmacokinetic data generated according to Example 21 and presented in FIGS. 11, 12, 13, 14, and 15 was analyzed according to the procedure described herein. Plasma concentrations of Compound 1 (AT-281), Compound 3 (AT-551) and Compound 6 (AT-273) were subjected to non-compartmental pharmacokinetic analysis using Phoenix WinNonlin software (version 6.3 or above, Pharsight, Mountain View, CA). The linear/log trapezoidal rule was applied in obtaining the PK parameters.

Data set [2] can be described thus: Plasma PK after single oral dose of AT-752, monkeys. It counts as in vivo, cynomolgus monkeys. The conditions noted are these: Monkey, single oral AT-752 300 mg/kg. As for the experimental part: Male cynomolgus monkeys were administered 300 mg/kg Compound 2 (AT-752). Blood samples were collected up to 24 hrs. post dose, plasma separated and analyzed for Compound 1 (AT-281), Compound 3 (AT-551), and Compound 6 (AT-273) by LC-MS/MS. Data are express as mean+/−SD (n=3-5/time point). The x-axis is time post the dose measured in hours and the y-axis is the plasma concentration of the metabolites measured in nanomoles/mL). The experimental procedure is provided in Example 14.
Male non-naïve cynomolgus monkeys (Hainan Jingang Laboratory Animal Co. Ltd., China), at least 2 kg body weight, were individually housed during the study in stainless steel mesh cages, provided ad libitum access to RO water, fed twice daily (except on the day of dosing when they were fed once) with ˜60 g Certified Monkey Diet each feed (Beijing Vital Keao Feed Co., Ltd., Beijing, China) and given daily treats of fresh fruit. They (n=5) were administered a dose of Compound 2 (AT-752) at 300 mg/kg in 40% PEG400, 10% solutol HS15, 50% 100 mM citrate buffer, pH 4.5 (v/v) by oral gavage, and blood samples (˜0.5 mL) were collected at 1, 2, 4, 8, 12 and 24 h post dose. Plasma was separated at each time point for pharmacokinetics, and stored at −70° C. […] Separately, three monkeys were given an oral dose of Compound 2 (AT-752) as powder in capsules at 60 mg/kg ([…] (AT-281) equivalent dose of 55 mg/kg), and blood samples collected at 12, 24 and 48 h post dose.
as §1, §2

Data set [3] is described as follows: Multiple-dose tolerability and steady state exposure, mice. It counts as in vivo, CD-1 mice. As for the experimental part: There were no adverse clinical signs observed in the mice so the multiple doses of the prodrug were well-tolerated.
Separately, two mouse studies with multiple dosing were conducted. First, 9 naïve CD-1 mice were administered Compound 1 (AT-281) in 100 mM citrate buffer, pH 4.5 by oral gavage at 500 mg/kg for the first dose and, 4 h later, 250 mg/kg for the second dose. Blood samples were collected, 3 animals per time point, at 4 (before the second dosing), 8 and 16 h post the first dose, and PBMCs isolated. Secondly, 9 naïve CD-1 mice were administered Compound 1 (AT-281) by oral gavage at 1000 mg/kg for the first dose, and then 4 h later, they were given twice daily doses 12 hours apart for 3 consecutive days at 500 mg/kg. Blood samples were collected, 3 animals per time point, at 16 (received one 500 mg/kg dose), 40 (received three 500 mg/kg doses) and 76 h post first dose (received six 500 mg/kg doses), and PBMCs were isolated.
as §1

For data set [4] the following is noted: for Tmax / AUCtau / Cmax: steady-state, human plasma; for Tmax: median (minimum-maximum); for AUCtau / Cmax: mean±SD.
Setting [5] is: 1000 mg/kg loading then 500 mg/kg twice a day for 3 days, 12 h after the sixth 500 mg/kg dose.
Setting [6] is: 1000 mg/kg loading then 500 mg/kg twice a day, 12 h after the first 500 mg/kg dose.

In general, Cmax refers to the peak of the concentration-time curve. In the case of `CNc1nc(N)nc2c1ncn2[C@@H]1O[C@H](CO[P@](=O)(N[C@@H](C)C(=O)OC(C)C)Oc2ccccc2)[C@@H](O)[C@@]1(C)F` [Compound 1, isopropyl ((R)-(((2R,3R,4R,5R)-5-(2-amino-6-(methylamino)-9H-purin-9-yl)-4-fluoro-3-hydroxy-4-methyltetrahydrofuran-2-yl)methoxy)(phenoxy)phosphoryl)-L-alaninate], the “plasma concentration at 1 h, the earliest time point measured” value in data set [1] is “below the limit of quantitation”. Besides, the “time present in plasma” value in data set [2] is “more than 4 h”. For the same compound, in data set [2] (plasma), the AUC0-24 h came out at 9.5 ± 3.7 µM·h, the highest level (Cmax) was 3700 ± 1500 nM and the Tmax stood at 1 h. Moreover, the “tolerability of multiple doses (adverse clinical signs)” value in data set [3] (1000 mg/kg loading then 500 mg/kg twice a day for 3 days) was “well-tolerated”. The Tmax in data set [4] (Compound 2 750 mg TID) is recorded as 0.5 (0.5-1.0) h.
As for `C[C@@]1(F)[C@H](O)[C@@H](COP(=O)(O)OP(=O)(O)OP(=O)(O)O)O[C@H]1n1cnc2c(=O)[nH]c(N)nc21` [Compound 5], the entries for the “concentration of AT-9010 in pooled PBMCs” value in data set [3] (setting [5]) and in data set [3] (setting [6]) were 0.575 pmol/10^6 cells and 0.421 pmol/10^6 cells, respectively.
In the case of `C[C@@]1(F)[C@H](O)[C@@H](CO)O[C@H]1n1cnc2c(=O)[nH]c(N)nc21` [Compound 6, 2′-fluoro-2′-C-methylguanosine], the AUC0-24 h stood at 22.9 µM·h in data set [1] (plasma) and 7.8 ± 2.4 µM·h in data set [2] (plasma). Besides, the Cmax in data set [1] (plasma) was 1300 ± 300 nM; in data set [2] (plasma), 800 ± 200 nM; in data set [4] (Compound 2 750 mg BID), 288 ± 58 ng/mL; in data set [4] (Compound 2 750 mg TID), 330 ± 98 ng/mL; in data set [4] (Compound 2 1000 mg QD) it was 241 ± 56 ng/mL. The Tmax is reported as 8.0 ± 0.0 h in data set [1] (plasma), 3.5 (3.0-4.0) h in data set [4] (Compound 2 750 mg BID), 3.5 (3.0-6.0) h in data set [4] (Compound 2 750 mg TID) and 4.0 (3.0-4.0) h in data set [4] (Compound 2 1000 mg QD). The figures for the plasma concentration in data set [3] (setting [5]) and in data set [3] (setting [6]) were 1350 ± 860 nM and 670 ± 120 nM, respectively. For the same compound, the “increase of plasma exposure on multiple dosing” value in data set [4] (BID) is ~60%; in data set [4] (QD), “approximately 25%”; in data set [4] (TID), ~80%. The AUCtau in data set [4] (Compound 2 750 mg BID) was 2680 ± 730 ng·h/mL; in data set [4] (Compound 2 750 mg TID), 2370 ± 743 ng·h/mL; in data set [4] (Compound 2 1000 mg QD) it was 3120 ± 694 ng·h/mL.
